Measured values taken from BindingDB's records for doi:10.1021/jm970742b (University of Pennsylvania, 1998).

Molecular target: Sodium-dependent dopamine transporter (Rattus norvegicus, UniProt P23977)
Test: In vitro binding affinity towards dopamine transporter in rat striatal homogenate with [125I]IPT as the radioligand

Chain of Sodium-dependent dopamine transporter (P23977 whole entry): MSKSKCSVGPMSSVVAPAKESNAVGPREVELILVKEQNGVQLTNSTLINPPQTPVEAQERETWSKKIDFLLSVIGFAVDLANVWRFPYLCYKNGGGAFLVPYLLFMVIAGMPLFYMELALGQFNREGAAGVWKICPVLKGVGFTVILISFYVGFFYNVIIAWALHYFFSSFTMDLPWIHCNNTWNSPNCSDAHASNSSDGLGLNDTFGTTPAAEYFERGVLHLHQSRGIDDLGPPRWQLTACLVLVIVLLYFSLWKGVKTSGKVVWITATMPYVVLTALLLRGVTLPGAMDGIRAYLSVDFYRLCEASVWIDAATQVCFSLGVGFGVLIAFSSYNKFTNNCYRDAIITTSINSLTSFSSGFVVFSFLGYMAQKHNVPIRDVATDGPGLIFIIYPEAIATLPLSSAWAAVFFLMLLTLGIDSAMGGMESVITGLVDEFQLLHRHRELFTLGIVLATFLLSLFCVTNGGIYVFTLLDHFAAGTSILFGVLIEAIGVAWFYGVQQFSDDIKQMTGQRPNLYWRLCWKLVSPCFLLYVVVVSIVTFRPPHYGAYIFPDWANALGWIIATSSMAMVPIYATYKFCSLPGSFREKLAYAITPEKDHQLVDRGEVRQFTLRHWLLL

Row | SMILES | Ki
1 | CN1C2CCC1[C@H](c1ccc(Cl)cc1)[C@H]2CN1CC[S][Re]2(=[O])[S]CC[N]2CC1 (stereo partly drawn) [2-[[2-[[[3-(4-chlorophenyl)-8-methyl-8-azabicyclo[3.2.1]oct-2-yl]methyl](2-mercaptoethyl)amino]ethyl]amino]ethanethiolato(3-)-oxo-[1R-(exo-exo)]-;2-{Oxo[N(R),N-bis(2-mercaptoethyl)ethylenediaminato]rhenium(V)methyl}-3-(4-chlorophenyl)tropane] | 13.9 nM
2 | CN1C2CCC1[C@H](c1ccc(Cl)cc1)[C@@H]2CN1CC[S][Re]2(=[O])[S]CC[N]2CC1 (stereo partly drawn) [2-[[2-[[[3-(4-chlorophenyl)-8-methyl-8-azabicyclo[3.2.1]oct-2-yl]methyl](2-mercaptoethyl)amino]ethyl]amino]ethanethiolato(3-)-oxo-[1R-(exo-exo)]-;2-{Oxo[N(S),N-bis(2-mercaptoethyl)ethylenediaminato]rhenium(V)methyl}-3-(4-chlorophenyl)tropane] | 8.42 nM
